From the supplement of paper PMC6411743 come the findings set out here.

Compound in the assay: Nc1ncnc2c1ncn2[C@@H]1O[C@H](COP(=O)(O)OP(=O)(O)OP(=O)(O)O)[C@@H](O)[C@H]1O [adenosine triphosphate]
As to the kind of experiment: pEC50 of ATP-induced change in protein thermal stability (2D-TPP). How it is done: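 2D thermal proteome profiling in mechanically disrupted Jurkat crude lysate. Lysate was treated 10 min at room temperature with Na-ATP (0, 0.005, 0.05, 0.5, 2 mM), heated to 12 temperatures (42-63.9 °C) for 3 min, and soluble protein was quantified by TMT10 LC-MS/MS. pEC50 is the median over replicates of dose-response fits at the lowest temperature showing a fold change of at least 1.5 (FDR-controlled hits).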

Sequence of UniProt Q9UKU0 (Q9UKU0 whole entry): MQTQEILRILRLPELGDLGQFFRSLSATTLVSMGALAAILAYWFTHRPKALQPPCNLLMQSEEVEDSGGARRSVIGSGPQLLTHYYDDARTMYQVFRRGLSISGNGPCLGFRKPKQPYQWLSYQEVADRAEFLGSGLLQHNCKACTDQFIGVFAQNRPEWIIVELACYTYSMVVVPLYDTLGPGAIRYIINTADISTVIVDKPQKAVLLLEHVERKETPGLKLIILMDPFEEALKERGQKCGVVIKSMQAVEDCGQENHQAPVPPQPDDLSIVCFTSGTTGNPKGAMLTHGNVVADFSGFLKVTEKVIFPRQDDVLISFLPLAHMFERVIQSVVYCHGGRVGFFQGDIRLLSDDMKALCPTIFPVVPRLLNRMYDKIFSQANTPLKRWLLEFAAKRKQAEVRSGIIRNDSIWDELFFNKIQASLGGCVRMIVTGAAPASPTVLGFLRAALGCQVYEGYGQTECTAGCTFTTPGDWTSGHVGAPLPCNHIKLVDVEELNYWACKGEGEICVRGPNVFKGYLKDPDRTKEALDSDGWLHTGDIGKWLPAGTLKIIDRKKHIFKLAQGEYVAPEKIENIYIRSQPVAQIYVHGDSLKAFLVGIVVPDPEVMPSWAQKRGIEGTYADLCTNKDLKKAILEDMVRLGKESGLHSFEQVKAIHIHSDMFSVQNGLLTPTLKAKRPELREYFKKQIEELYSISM
Sequence of UniProt Q07960 (Q07960 whole entry): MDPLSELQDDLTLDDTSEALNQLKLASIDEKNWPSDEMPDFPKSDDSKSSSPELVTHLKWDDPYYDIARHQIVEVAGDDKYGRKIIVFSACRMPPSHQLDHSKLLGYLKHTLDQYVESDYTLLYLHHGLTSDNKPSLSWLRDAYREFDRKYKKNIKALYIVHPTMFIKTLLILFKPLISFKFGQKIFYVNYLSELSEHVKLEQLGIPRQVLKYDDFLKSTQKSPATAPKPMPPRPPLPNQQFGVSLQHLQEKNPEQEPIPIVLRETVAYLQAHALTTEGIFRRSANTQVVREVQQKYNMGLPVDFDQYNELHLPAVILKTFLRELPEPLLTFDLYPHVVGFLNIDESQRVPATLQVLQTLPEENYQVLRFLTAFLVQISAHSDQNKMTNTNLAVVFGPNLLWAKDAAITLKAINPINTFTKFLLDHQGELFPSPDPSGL
Sequence of UniProt Q9BTT0 (Q9BTT0 whole entry): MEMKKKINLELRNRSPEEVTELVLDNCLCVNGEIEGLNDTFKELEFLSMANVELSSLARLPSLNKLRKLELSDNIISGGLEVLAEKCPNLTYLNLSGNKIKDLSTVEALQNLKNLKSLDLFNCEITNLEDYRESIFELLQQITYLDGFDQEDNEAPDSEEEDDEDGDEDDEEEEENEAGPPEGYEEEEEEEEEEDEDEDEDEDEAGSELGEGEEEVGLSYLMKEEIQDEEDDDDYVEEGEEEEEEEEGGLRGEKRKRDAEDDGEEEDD
Sequence of UniProt Q6P6C2 (Q6P6C2 whole entry, looked up): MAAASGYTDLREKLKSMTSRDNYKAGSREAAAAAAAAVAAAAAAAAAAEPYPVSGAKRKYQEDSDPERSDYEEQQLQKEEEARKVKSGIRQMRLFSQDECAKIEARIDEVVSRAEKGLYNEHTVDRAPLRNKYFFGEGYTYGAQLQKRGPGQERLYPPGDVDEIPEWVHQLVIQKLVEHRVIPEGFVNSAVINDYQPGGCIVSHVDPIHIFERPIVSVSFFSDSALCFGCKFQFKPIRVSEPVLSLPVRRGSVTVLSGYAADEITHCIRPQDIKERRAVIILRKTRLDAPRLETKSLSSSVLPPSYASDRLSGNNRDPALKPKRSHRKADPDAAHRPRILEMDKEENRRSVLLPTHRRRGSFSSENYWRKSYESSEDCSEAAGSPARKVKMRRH
Sequence of UniProt P98194 (P98194 whole entry): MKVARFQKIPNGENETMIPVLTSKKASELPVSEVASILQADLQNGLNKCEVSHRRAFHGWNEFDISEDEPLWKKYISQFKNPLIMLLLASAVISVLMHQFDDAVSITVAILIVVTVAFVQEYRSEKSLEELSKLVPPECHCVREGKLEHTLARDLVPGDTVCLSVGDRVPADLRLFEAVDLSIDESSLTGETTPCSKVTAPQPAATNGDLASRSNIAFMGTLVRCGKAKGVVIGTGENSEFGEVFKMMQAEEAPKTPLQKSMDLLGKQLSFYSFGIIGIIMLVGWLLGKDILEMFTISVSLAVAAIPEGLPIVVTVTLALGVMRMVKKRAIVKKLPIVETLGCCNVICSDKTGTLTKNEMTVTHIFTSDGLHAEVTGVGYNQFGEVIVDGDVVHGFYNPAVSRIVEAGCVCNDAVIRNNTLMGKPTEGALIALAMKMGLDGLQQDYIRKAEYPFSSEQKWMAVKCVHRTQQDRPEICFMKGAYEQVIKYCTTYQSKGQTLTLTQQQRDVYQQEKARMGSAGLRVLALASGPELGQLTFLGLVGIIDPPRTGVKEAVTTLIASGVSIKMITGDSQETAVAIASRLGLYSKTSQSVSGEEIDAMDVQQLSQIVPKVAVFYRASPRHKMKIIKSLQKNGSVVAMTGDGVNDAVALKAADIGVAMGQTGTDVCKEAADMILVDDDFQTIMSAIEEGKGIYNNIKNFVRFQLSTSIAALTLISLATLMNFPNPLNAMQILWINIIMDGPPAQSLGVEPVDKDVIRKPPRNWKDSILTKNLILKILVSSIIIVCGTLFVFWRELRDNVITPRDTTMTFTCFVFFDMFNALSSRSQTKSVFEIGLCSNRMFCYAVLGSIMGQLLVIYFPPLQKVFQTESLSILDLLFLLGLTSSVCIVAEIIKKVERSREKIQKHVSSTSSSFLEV
Sequence of UniProt Q86VP6 (Q86VP6 whole entry): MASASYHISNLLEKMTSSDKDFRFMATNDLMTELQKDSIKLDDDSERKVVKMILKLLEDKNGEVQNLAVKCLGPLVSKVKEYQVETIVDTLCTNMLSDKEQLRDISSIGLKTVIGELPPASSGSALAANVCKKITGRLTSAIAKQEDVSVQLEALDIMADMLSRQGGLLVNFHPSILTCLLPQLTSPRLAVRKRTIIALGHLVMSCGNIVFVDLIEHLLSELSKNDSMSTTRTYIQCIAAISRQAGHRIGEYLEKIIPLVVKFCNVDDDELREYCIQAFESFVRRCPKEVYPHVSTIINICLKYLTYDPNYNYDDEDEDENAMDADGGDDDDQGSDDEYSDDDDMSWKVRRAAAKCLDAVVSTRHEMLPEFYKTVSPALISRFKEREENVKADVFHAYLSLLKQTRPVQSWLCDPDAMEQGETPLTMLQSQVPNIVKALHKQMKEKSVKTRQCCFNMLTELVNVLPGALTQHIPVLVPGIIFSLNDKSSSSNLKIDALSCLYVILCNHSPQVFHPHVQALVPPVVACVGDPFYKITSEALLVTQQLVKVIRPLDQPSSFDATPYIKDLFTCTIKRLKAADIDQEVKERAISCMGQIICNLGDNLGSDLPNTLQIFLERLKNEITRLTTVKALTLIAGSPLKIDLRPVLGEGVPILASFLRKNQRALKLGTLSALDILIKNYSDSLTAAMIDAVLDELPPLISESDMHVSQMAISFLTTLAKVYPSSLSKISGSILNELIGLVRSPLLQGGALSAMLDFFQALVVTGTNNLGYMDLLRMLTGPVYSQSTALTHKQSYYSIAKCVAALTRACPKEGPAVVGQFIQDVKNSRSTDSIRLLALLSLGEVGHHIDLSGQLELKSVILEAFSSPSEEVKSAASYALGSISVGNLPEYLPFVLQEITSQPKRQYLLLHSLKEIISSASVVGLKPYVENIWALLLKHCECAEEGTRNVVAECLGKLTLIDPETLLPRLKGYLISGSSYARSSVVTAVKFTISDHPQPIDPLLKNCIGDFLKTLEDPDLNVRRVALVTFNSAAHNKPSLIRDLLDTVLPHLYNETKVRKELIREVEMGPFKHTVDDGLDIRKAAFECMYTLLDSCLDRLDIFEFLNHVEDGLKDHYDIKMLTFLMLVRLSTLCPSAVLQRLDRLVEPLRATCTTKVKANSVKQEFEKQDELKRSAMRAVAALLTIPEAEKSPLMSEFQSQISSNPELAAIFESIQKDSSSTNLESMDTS
Sequence of UniProt Q16186 (Q16186 whole entry): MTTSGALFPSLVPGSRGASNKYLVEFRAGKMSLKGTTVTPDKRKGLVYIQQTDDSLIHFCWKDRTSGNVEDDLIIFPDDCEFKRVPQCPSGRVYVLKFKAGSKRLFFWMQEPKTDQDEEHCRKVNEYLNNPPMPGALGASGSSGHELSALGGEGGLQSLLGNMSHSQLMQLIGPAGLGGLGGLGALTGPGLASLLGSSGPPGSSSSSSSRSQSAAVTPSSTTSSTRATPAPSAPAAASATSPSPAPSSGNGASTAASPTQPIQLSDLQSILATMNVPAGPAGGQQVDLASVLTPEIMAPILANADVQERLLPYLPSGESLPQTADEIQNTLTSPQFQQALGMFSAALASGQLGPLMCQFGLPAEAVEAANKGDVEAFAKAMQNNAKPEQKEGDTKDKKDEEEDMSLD
Sequence of UniProt P48643 (P48643 whole entry): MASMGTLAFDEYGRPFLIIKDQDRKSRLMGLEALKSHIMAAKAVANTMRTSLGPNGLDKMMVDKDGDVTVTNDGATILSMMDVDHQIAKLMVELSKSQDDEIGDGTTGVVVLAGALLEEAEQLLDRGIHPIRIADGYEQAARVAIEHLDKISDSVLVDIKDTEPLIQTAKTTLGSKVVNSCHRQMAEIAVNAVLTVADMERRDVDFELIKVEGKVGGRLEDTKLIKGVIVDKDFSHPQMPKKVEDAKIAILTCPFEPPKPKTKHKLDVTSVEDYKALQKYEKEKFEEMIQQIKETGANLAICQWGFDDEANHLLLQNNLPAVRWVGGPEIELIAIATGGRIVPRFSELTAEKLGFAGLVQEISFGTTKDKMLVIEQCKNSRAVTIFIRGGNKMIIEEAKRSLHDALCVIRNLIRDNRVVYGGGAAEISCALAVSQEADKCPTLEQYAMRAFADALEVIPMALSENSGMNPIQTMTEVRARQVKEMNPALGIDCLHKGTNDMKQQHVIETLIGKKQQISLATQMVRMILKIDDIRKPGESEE

For A0AVT1 (effect direction: stabilized), the pEC50 was found to be 4.35. Regarding “AARS2 (effect direction: stabilized) (UniProt Q5JTZ9)”, the pEC50 is 3.29. With “AARS (effect direction: stabilized) (UniProt P49588)”, the pEC50 was 4.2. Turning to “ABCB8 (effect direction: stabilized) (UniProt Q9NUT2)”, the pEC50 is 3.5. Take “ABCB10 (effect direction: stabilized) (UniProt Q9NRK6)”: the pEC50 came out at 4.06. As for “ABCC1 (effect direction: stabilized) (UniProt P33527)”, the figure is 3.46; as for “ACADM (effect direction: stabilized) (UniProt P11310)”, below 2.7. With “ACLY (effect direction: stabilized) (UniProt P53396)” the figure was 3.16; with “ACSL1 (effect direction: stabilized) (UniProt P33121)”, 3.63; with “ACSL6 (effect direction: stabilized) (UniProt Q9UKU0)”, 3.69. Consider “ACTL6A (effect direction: stabilized) (UniProt O96019)”, for which the pEC50 was 3.4. Turning to “ACTR1B (effect direction: stabilized) (UniProt P42025)”, the pEC50 worked out at 4.23.

As to “ACTR10 (effect direction: destabilized) (UniProt Q9NZ32)”, the pEC50 was below 2.7. With “ADK (effect direction: stabilized) (UniProt P55263)” the figure was 3.82; with “ADRM1 (effect direction: stabilized) (UniProt Q16186)”, 4.04. As for “AFF4 (effect direction: stabilized) (UniProt Q9UHB7)”, the pEC50 is 3.8. As for “AGK (effect direction: stabilized) (UniProt Q53H12)”, the pEC50 worked out at 2.97. As for “AGPAT5 (effect direction: stabilized) (UniProt Q9NUQ2)”, the pEC50 is 3.89.

Take “AHCY (effect direction: stabilized) (UniProt P23526)”: the pEC50 turned out to be 4.33. For the target “AHSA1 (effect direction: stabilized) (UniProt O95433)”, the pEC50 was below 2.7. For “AIP (effect direction: stabilized) (UniProt O00170)”, the pEC50 is below 2.7. As to “AK2 (effect direction: stabilized) (UniProt P54819)”, the pEC50 amounted to 4.01. Turning to “ALDH5A1 (effect direction: stabilized) (UniProt P51649)”, the pEC50 was determined as 3.06.

In the case of “ALDH6A1 (effect direction: stabilized) (UniProt Q02252)”, the pEC50 was 3.53. As to “ALDH9A1 (effect direction: stabilized) (UniProt P49189)”, the pEC50 worked out at 2.9. On to “ALDH18A1 (effect direction: stabilized) (UniProt P54886)”, for which the pEC50 was 3.12. Take “ALKBH5 (effect direction: stabilized) (UniProt Q6P6C2)”: the pEC50 was determined as 3.65.

On to “AMPD3 (effect direction: stabilized) (UniProt Q01432)”, for which the pEC50 is 2.95. As to “ANKMY2 (effect direction: stabilized) (UniProt Q8IV38)”, the pEC50 was below 2.7. Consider “ANP32A (effect direction: stabilized) (UniProt P39687)”, for which the pEC50 is below 2.7. As for “ANP32E (effect direction: stabilized) (UniProt Q9BTT0)”, the pEC50 is below 2.7. Regarding “ANXA5 (effect direction: stabilized) (UniProt P08758)”, the pEC50 amounted to 2.79.

Take “ANXA6 (effect direction: stabilized) (UniProt P08133)”: the pEC50 is below 2.7. For “APRT (effect direction: destabilized) (UniProt P07741)”, the pEC50 was found to be 4.41. With “ARG2 (effect direction: destabilized) (UniProt P78540)” the figure was 3.17.

For the target “ARHGAP1 (effect direction: stabilized) (UniProt Q07960)”, the pEC50 was 3.14. Regarding “ARHGDIB (effect direction: stabilized) (UniProt P52566)”, the pEC50 is below 2.7. For “ARID1A (effect direction: stabilized) (UniProt O14497)”, the pEC50 is below 2.7. With “ARMC1 (effect direction: stabilized) (UniProt Q9NVT9)” the figure was below 2.7; with “ARPC3 (effect direction: stabilized) (UniProt O15145)”, 2.88; with “ARPC5L (effect direction: stabilized) (UniProt Q9BPX5)”, 4.05. In the case of “ASNA1 (effect direction: stabilized) (UniProt O43681)”, the pEC50 was 3.31.

Consider “ASNS (effect direction: stabilized) (UniProt P08243)”, for which the pEC50 came to 3.18. “ASPSCR1 (effect direction: stabilized) (UniProt Q9BZE9)”: the pEC50 stood at 3.92.

Turning to “ASS1 (effect direction: stabilized) (UniProt P00966)”, the pEC50 amounted to 3.66. As to “ATAD2B (effect direction: destabilized) (UniProt Q9ULI0)”, the pEC50 is 3.06. Take “ATG7 (effect direction: stabilized) (UniProt O95352)”: the pEC50 was found to be 3.74.

For “ATIC (effect direction: stabilized) (UniProt P31939)”, the pEC50 was below 2.7. As for “ATP1A1 (effect direction: stabilized) (UniProt P05023)”, the pEC50 stood at 3.18. With “ATP2A3 (effect direction: stabilized) (UniProt Q93084)” the figure was 3.22; with “ATP2B4 (effect direction: stabilized) (UniProt P23634)”, 3.22. “ATP2C1 (effect direction: stabilized) (UniProt P98194)”: the pEC50 came out at 3.66. Consider “ATP11B (effect direction: stabilized) (UniProt Q9Y2G3)”, for which the pEC50 was found to be 4.15. On to “ATXN10 (effect direction: stabilized) (UniProt Q9UBB4)”, for which the pEC50 was below 2.7.

Turning to “BCL7A (effect direction: destabilized) (UniProt Q4VC05)”, the pEC50 was found to be 3.03. As for “BICD2 (effect direction: stabilized) (UniProt Q8TD16)”, the pEC50 was below 2.7. As for “BLVRB (effect direction: stabilized) (UniProt P30043)”, the pEC50 came out at 2.87. “BNIP2 (effect direction: stabilized) (UniProt Q12982)”: the pEC50 was below 2.7.

As for “BOP1 (effect direction: stabilized) (UniProt Q14137)”, the pEC50 was below 2.7. For the target “C1QBP (effect direction: stabilized) (UniProt Q07021)”, the pEC50 was below 2.7. Consider “C12orf29 (effect direction: destabilized) (UniProt Q8N999)”, for which the negative logarithm of the EC50 (pEC50) was 3.11. With “CAB39 (effect direction: stabilized) (UniProt Q9Y376)” the figure was 3.15; with “CACYBP (effect direction: stabilized) (UniProt Q9HB71)”, 2.95. Regarding “CAMK2G (effect direction: stabilized) (UniProt Q13555)”, the pEC50 worked out at 3.4. “CAMKK2 (effect direction: stabilized) (UniProt Q96RR4)”: the pEC50 stood at 3.63. Take “CAND1 (effect direction: stabilized) (UniProt Q86VP6)”: the pEC50 was found to be 2.95. With “CAP1 (effect direction: stabilized) (UniProt Q01518)”, the pEC50 was found to be 5. As for “CAPN1 (effect direction: stabilized) (UniProt P07384)”, the pEC50 is 3.17. Take “CAPNS1 (effect direction: stabilized) (UniProt P04632)”: the pEC50 was 2.86. Take “CARS2 (effect direction: stabilized) (UniProt Q9HA77)”: the pEC50 turned out to be 3.14. For the target “CARS (effect direction: stabilized) (UniProt P49589)”, the pEC50 was found to be 3.63. For the target “CBWD1 (effect direction: stabilized) (UniProt Q9BRT8)”, the pEC50 turned out to be 2.96. “CCDC12 (effect direction: destabilized) (UniProt Q8WUD4)”: the pEC50 came out at 3.49.

“CCDC86 (effect direction: stabilized) (UniProt Q9H6F5)”: the negative logarithm of the EC50 (pEC50) was below 2.7. For the target “CCNB1 (effect direction: stabilized) (UniProt P14635)”, the pEC50 worked out at 4.27. “CCNB2 (effect direction: stabilized) (UniProt O95067)”: the pEC50 was found to be 4.13. With “CCT5 (effect direction: stabilized) (UniProt P48643)” the figure was 3.02; with “CCT6A (effect direction: stabilized) (UniProt P40227)”, 4.38; with “CCT7 (effect direction: stabilized) (UniProt Q99832)”, 4.39. As for “CDC40 (effect direction: destabilized) (UniProt O60508)”, the pEC50 was 3.22. Consider “CDIPT (effect direction: destabilized) (UniProt O14735)”, for which the pEC50 was 2.77.

For orientation: pEC50 means the negative decadic logarithm of the EC50, by convention in mol/L.
